Data from US7622450B2, “Flavone C-glycoside derivatives and compositions containing the derivatives” (Suntory Holdings Limited, priority 2002, dated 2009).

Legend:
DNFB-induced ear edema = assay: Inhibitory effect on mouse ear contact dermatitis (DNFB-induced ear edema); format: in vivo, ICR strain mice; conditions: for Dose producing 50% inhibition of ear edema: DNFB-induced ear edema, mice, p.o.; for DNFB-induced edema vs control group: ICR mice, Student's t-test
Protocol: (§1) ICR strain mice at 7 weeks of age were purchased from CLEA Japan and used for experiments after preconditioning for 1 week. The yellow powder obtained in Example 1 [compound (1)] was suspended in 0.5% sodium carboxymethylcellulose/0.01N hydrochloric acid to prepare sample formulations at three concentrations corresponding to doses of 0.2, 1.0 and 5.0 μg/kg in a dose volume of 10 ml/kg. […] in six mice per group was established in 5 days by subcutaneous injection of 100 μl of a solution of 1% 2,4-dinitrofluorobenzene (DNFB) in ethanol on the back. On day 6, a solution of 1% DNFB in olive oil was applied on the right ear to induce ear contact dermatitis. After 24 hours, both ears were punched out in a diameter of 8 mm and weighed. Compound (1) was continuously orally administered for 7 days from the day before the primary challenge until the day on which edema was induced. A control group was treated with 0.5% sodium carboxymethylcellulose/0.01N hydrochloric acid. The experimental results were expressed as the average percentage of edema on the right in relation to left ears with standard deviation using Student's t-test for evaluating the significance between groups.
as §1, with “(2)]” for “(1)]”, “1.0, 10” for “0.2, 1.0”, “100” for “5.0”, “(2)” for “(1)”
The same procedures as in Experimental examples 1 and 2 were used to compare the inhibitory effects of a corticosteroid and several flavonoids (FIG. 3) on DNFB-induced ear edema formation with those of compound (1) and compound (2). The experimental results were expressed as the dose producing a 50% inhibition of DNFB-induced ear edema.

peritoneal mast cells = assay: Inhibitory effect on histamine release from peritoneal mast cells (Compound 48/80); format: cell-based, Wistar strain rats; conditions: Mast cell, rat peritoneal mast cells
Protocol: Wistar strain rats at 7 weeks of age were purchased from CLEA Japan and used for experiments after preconditioning for 1 week. After Wistar strain rats were decapitated under ether anesthesia, Tyrode solution was intraperitoneally injected. Mast cells were routinely isolated and suspended at […] in Tyrode solution containing 0.1% bovine serum albumin (BSA) to prepare a mast cell suspension. The mast cell suspension was incubated with compound (1) or compound (2) dissolved in 50% methanol at 37° C. for 5 minutes. Then, the suspension was further incubated with Compound 48/80 at 37° C. for 10 minutes and cooled on ice and then centrifuged. Then, the free histamine content in the resulting supernatant was measured on a high-speed liquid chromatograph by the post-column method using ortho-phthalaldehyde (OPA) according to the method of Onda et al. [J. Med. Sci., 27, 93-97(1978)]. The experimental results were expressed as the percentage of histamine release inhibited by the treatment with the samples as compared with the treatment with the solvent alone.

Structure (SMILES) | Dose producing 50% inhibition of ear edema (DNFB-induced ear edema) [mg/kg p.o.] | also measured
O=c1cc(-c2ccc(O)cc2)oc2cc(O)cc(O)c12 [Apigenin] | 247 | –
O=c1cc(-c2ccc(O)cc2)oc2cc3c(c(O)c12)[C@@H]1O[C@H](CO)[C@@H](O)[C@H](O)[C@@H]1O3 [Compound (1)] | 0.05 | inhibition at 5 µg/mL (peritoneal mast cells; concentration 5.0 μg/ml): 62.3%; DNFB-induced edema vs control group (DNFB-induced ear edema; 1.0 μg/kg orally for 7 days): significantly inhibited; DNFB-induced edema vs control group (DNFB-induced ear edema; 5.0 μg/kg orally for 7 days): significantly inhibited
O=c1cc(-c2ccc(O)cc2)oc2c3c(cc(O)c12)O[C@H]1[C@@H](O)[C@H](O)[C@@H](CO)O[C@@H]31 [Compound (2)] | 0.17 | inhibition at 50 µg/mL (peritoneal mast cells; concentration 50.0 μg/ml): 51.2%; DNFB-induced edema vs control group (DNFB-induced ear edema; 100 μg/kg orally for 7 days): significantly inhibited
C[C@@H]1C[C@H]2[C@@H]3CCC4=CC(=O)C=C[C@]4(C)[C@@]3(F)[C@@H](O)C[C@]2(C)[C@@]1(O)C(=O)CO [Dexamethasone] | 1.5 | –
O=c1c(O)c(-c2ccc(O)c(O)c2)oc2cc(O)cc(O)c12 [Quercetin] | 265 | –
C[C@@H]1O[C@@H](O[C@@H]2[C@@H](O)[C@H](O)[C@@H](CO)O[C@H]2c2c(O)cc(O)c3c(=O)cc(-c4ccc(O)cc4)oc23)[C@H](O)[C@H](O)[C@H]1O [Rhamnosyl vitexin] | 146 | –
C[C@@H]1O[C@@H](OC[C@H]2O[C@@H](Oc3c(-c4ccc(O)c(O)c4)oc4cc(O)cc(O)c4c3=O)[C@H](O)[C@@H](O)[C@@H]2O)[C@H](O)[C@H](O)[C@H]1O [Rutin] | 123 | –
O=c1cc(-c2ccc(O)cc2)oc2c([C@@H]3O[C@H](CO)[C@@H](O)[C@H](O)[C@H]3O)c(O)cc(O)c12 [Vitexin] | 103 | –
